Source: US20240101548A1, “HYDROXAMATE COMPOUND, PREPARATION METHOD THEREFOR AND APPLICATION THEREOF” (SHENZHEN CHIPSCREEN BIOSCIENCES CO., LTD., priority 2020, published 2024)

How the values were obtained:
[1] = tested on: EPO-induced JAK2 signal pathway; assay: EPO-induced proliferation of UT-7 cells (JAK2 signal); type: cell-based, human; settings: Homo sapiens, UT7; UT-7 cell proliferation, EPO 10 ng/mL, 72 hours; read-out: Inhibition activity IC50 on EPO-induced JAK2 signal pathway
Procedure, shortened: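 UT-7 cells (15000/well) stimulated with 10 ng/mL human recombinant EPO plus compound at final 0, 100, 1000 or 10000 nM, 72 h at 37° C., 5% CO2. Proliferation by alamarBlue fluorescence (Ex530/Em590); inhibition normalised to no-cytokine/no-compound (0) and EPO-only (100) wells, […] derived from dose-inhibition.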

[2] = tested on: IL-2-induced JAK1/JAK3 signal pathway; assay: IL-2-induced proliferation of KHYG-1 cells (JAK1/JAK3 signal); type: cell-based, human; settings: Homo sapiens; KHYG-1 cell proliferation, IL-2 10 ng/mL, 72 hours; read-out: Inhibition activity IC50 on IL-2-induced JAK1/JAK3 signal pathway
Procedure, shortened: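 KHYG-1 NK lymphoma cells were cultured with IL-2 and test compound at various doses for 72 h at 37 °C and 5% CO2, and proliferation was read with alamarBlue fluorescence. Inhibition was normalized to wells without compound or cytokine (0%) and IL-2 wells without compound (100%), and C50 was derived from the dose-inhibition data.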

SMILES	IC50 [1]	IC50 [2]
CONC(=O)c1cnc(Nc2ccc(C)cn2)cc1Nc1ccc(C)cc1N(C)S(C)(=O)=O [Example 107, N-methoxy-4-((4-methyl-2-(N-methylmethanesulfonamido)phenyl)amino)-6-((5-methylpyridin-2-yl)amino)nicotinamide]	> 10 µM	> 10 µM
CCONC(=O)c1cnc(Nc2cccc(F)n2)cc1Nc1ccccc1NS(C)(=O)=O [Example 117, N-ethoxy-6-((6-fluoropyridin-2-yl)amino)-4-((2-(methanesulfonamido)phenyl)amino)nicotinamide]	> 10 µM	> 10 µM
CCONC(=O)c1cnc(NC(=O)C2CC2)cc1Nc1cc(C)c(C2CC2)cc1N(C)S(C)(=O)=O [Example 120, 6-(cyclopropylcarboxamido)-4-((4-cyclopropyl-5-methyl-2-(N-methylmethanesulfonamido)phenyl)amino)-N-ethoxy nicotinamide]	> 10 µM	> 10 µM
CCONC(=O)c1cnc(Nc2cc(C)nc(C)n2)cc1Nc1cc(C)c(C2CC2)cc1N(C)S(C)(=O)=O [Example 121]	> 10 µM	> 10 µM
CCONC(=O)c1cnc(Nc2ccc(CO)cn2)cc1Nc1ccc(C2CC2)cc1N(C)S(C)(=O)=O [Example 122, 4-((4-cyclopropyl-2-(N-methylmethanesulfonamido)phenyl)amino)-N-ethoxy-6-((5-(hydroxymethyl)pyridin-2-yl)amino)nicotinamide]	> 10 µM	> 10 µM
CCONC(=O)c1cnc(Nc2nc(C)cc(C)n2)cc1Nc1ccc(C2CC2)cc1N(C)S(C)(=O)=O [Example 123, 4-((4-cyclopropyl-2-(N-methylmethanesulfonamido)phenyl)amino)-6-((4,6-dimethylpyrimidin-2-yl)amino)-N-ethoxy nicotinamide]	> 10 µM	> 10 µM
CCONC(=O)c1cnc(Nc2ncccn2)cc1Nc1ccc(C2CC2)cc1N(C)S(C)(=O)=O [Example 124, 4-((4-cyclopropyl-2-(N-methylmethanesulfonamido)phenyl)amino)-N-ethoxy-6-(pyrimidin-2-ylamino)nicotinamide]	> 10 µM	> 10 µM
CCONC(=O)c1cnc(Nc2ccnn2C)cc1Nc1ccc(N2CCOCC2)cc1N(C)S(C)(=O)=O [Example 135]	> 10 µM	> 10 µM
CCONC(=O)c1cnc(Nc2ccn(C)n2)cc1Nc1ccc(N2CCOCC2)cc1N(C)S(C)(=O)=O [Example 137]	> 10 µM	> 10 µM
CCONC(=O)c1cnc(Nc2cnn(C)c2)cc1Nc1ccc(C2CC2)cc1N(C)S(C)(=O)=O [Example 140, 4-((4-cyclopropyl-2-(N-methylmethanesulfonamido)phenyl)amino)-N-ethoxy-6-((1-methyl-1H-pyrazol-4-yl)amino)nicotinamide]	> 10 µM	> 10 µM
CCONC(=O)c1cnc(Nc2cc(C)ccn2)cc1Nc1ccc(C2CC2)cc1N(C)S(C)(=O)=O [Example 147, 4-((4-cyclopropyl-2-(N-methylmethanesulfonamido)phenyl)amino)-N-ethoxy-6-((4-methylpyridin-2-yl)amino)nicotinamide]	> 10 µM	> 10 µM
CCONC(=O)c1cnc(Nc2ccc(C)nc2)cc1Nc1ccc(C2CC2)cc1N(C)S(C)(=O)=O [Example 148, 4-((4-cyclopropyl-2-(N-methylmethanesulfonamido)phenyl)amino)-N-ethoxy-6-((6-methylpyridin-3-yl)amino)nicotinamide]	> 10 µM	> 10 µM
CCONC(=O)c1cnc(Nc2cc(C)nc(C)n2)cc1Nc1cc(Cl)c(C2CC2)cc1N(C)S(C)(=O)=O [Example 149]	> 10 µM	> 10 µM
CCONC(=O)c1cnc(NC(=O)C2CC2)cc1Nc1cc(Cl)c(C2CC2)cc1N(C)S(C)(=O)=O [Example 150, 4-((5-chloro-4-cyclopropyl-2-(N-methylmethanesulfonamido)phenyl)amino)-6-(cyclopropylcarboxamido)-N-ethoxy nicotinamide]	> 10 µM	> 10 µM
CCONC(=O)c1cnc(Nc2ccc(C3CC3)cn2)cc1Nc1ccc(Cl)cc1N(C)S(C)(=O)=O [Example 152, 4-((4-chloro-2-(N-methylmethanesulfonamido)phenyl)amino)-6-((5-cyclopropylpyridin-2-yl)amino)-N-ethoxy nicotinamide]	> 10 µM	> 10 µM
CCONC(=O)c1cnc(Nc2nccs2)cc1Nc1ccc(C2CC2)cc1N(C)S(C)(=O)=O [Example 158, 4-((4-cyclopropyl-2-(N-methylmethanesulfonamido)phenyl)amino)-N-ethoxy-6-(thiazol-2-ylamino)nicotinamide]	> 10 µM	> 10 µM
CCONC(=O)c1cnc(Nc2ccnn2C)cc1Nc1ccc(C2CC2)cc1N(C)S(C)(=O)=O [Example 161, 4-((4-cyclopropyl-2-(N-methylmethanesulfonamido)phenyl)amino)-N-ethoxy-6-((1-methyl-1H-pyrazol-5-yl)amino)nicotinamide]	> 10 µM	> 10 µM
C#Cc1ccc(Nc2cc(Nc3ncccn3)ncc2C(=O)NOCC)c(N(C)S(C)(=O)=O)c1 [Example 163, N-ethoxy-4-((4-ethynyl-2-(N-methylmethanesulfonamido)phenyl)amino)-6-(pyrimidin-2-ylamino)nicotinamide]	> 10 µM	> 10 µM
C#Cc1ccc(Nc2cc(Nc3nc(C)cc(C)n3)ncc2C(=O)NOCC)c(N(C)S(C)(=O)=O)c1 [Example 164, 6-((4,6-dimethylpyrimidin-2-yl)amino)-N-ethoxy-4-((4-ethynyl-2-(N-methylmethanesulfonamido)phenyl)amino)nicotinamide]	> 10 µM	> 10 µM
CCONC(=O)c1cnc(Nc2nc(C)cs2)cc1Nc1ccc(C)cc1N(C)S(C)(=O)=O [Example 165, N-ethoxy-4-((4-methyl-2-(N-methylmethanesulfonamido)phenyl)amino)-6-((4-methylthiazol-2-yl)amino)nicotinamide]	> 10 µM	> 10 µM
CCONC(=O)c1cnc(Nc2ccnn2C)cc1Nc1cc(F)c(C2CC2)cc1N(C)S(C)(=O)=O [Example 168, 4-((4-cyclopropyl-5-fluoro-2-(N-methylmethanesulfonamido)phenyl)amino)-N-ethoxy-6-((1-methyl-1H-pyrazol-5-yl)amino)nicotinamide]	> 10 µM	> 10 µM
CCONC(=O)c1cnc(Nc2ncccn2)cc1Nc1cc(F)c(C2CC2)cc1N(C)S(C)(=O)=O [Example 169, 4-((4-cyclopropyl-5-fluoro-2-(N-methylmethanesulfonamido)phenyl)amino)-N-ethoxy-6-(pyrimidin-2-ylamino)nicotinamide]	> 10 µM	> 10 µM
CCONC(=O)c1cnc(Nc2ncc(C)s2)cc1Nc1ccc(OC)cc1N(C)S(C)(=O)=O [Example 172, N-ethoxy-4-((4-methoxy-2-(N-methylmethanesulfonamido)phenyl)amino)-6-(5-methylthiazol-2-ylamino)nicotinamide]	> 10 µM	> 10 µM
CCONC(=O)c1cnc(Nc2cc(C)nc(C)n2)cc1Nc1ccc(Cl)cc1N(C)S(=O)(=O)C1CC1 [Example 184]	> 10 µM	> 10 µM
CCONC(=O)c1cnc(Nc2cc(C)nc(C)c2)cc1Nc1ccc(C2CC2)cc1N(C)S(C)(=O)=O [Example 221]	> 10 µM	> 10 µM
